Laboratory results published in US11000529B2, “Human papilloma virus replication inhibitors” (Icosagen Cell Factory OÜ, priority 2015, dated 2021).
“Also recorded” adds a separate entry of the source.

Legend:
HPV18 [1] = assay: HPV18 initial amplification replication assay in U2OS cells (Southern Blot); assay type: cell-based; details: for IC50: 120 h, read-out: IC50 of HPV18 initial amplification; for inhibition of HPV18 initial amplification: HPV18 wt minicircle, 5 days, Southern Blot, relative to DMSO; for HPV18 replication after shRNA downregulation: 3 and 4 days after transfection, vs empty shRNA plasmid
Description: FIG. 2 Effect of the identified five compounds on HPV18 initial amplification. A: U2OS cells were transfected with HPV18 wt minicircle and grown in the presence of the compounds with indicated concentrations for 5 days. Genomic DNA was extracted, linearized, and digested with DpnI. HPV genome replication signals were detected using Southern Blot analyses and quantified with phosphoimager and expressed relative to vehicle control (DMSO). Approximate IC50 values are shown for each compound. Error-bars represent standard deviation from at least three independent experiment. B: U2OS cells were transfected with the expression vectors of HPV18 E1 and E2 proteins together with HPV18 URR (origin) minicircle plasmid. The cells were grown in the presence of the compounds with indicated concentrations for 24 or 48 hours. Genomic DNA was extracted, linearized and digested with DpnI. HPV URR replication signals were detected by Southern Blot analyses. DMSO serves as vehicle control and M 18URR serves as size marker.
(§1) Replication assay. The U2OS or U2OS-EBNA1 cells were transfected with 2 ug of HPV18 minicircle genome and lug of oriP plasmid (only in case of U2OS-EBNA1 cells). All the compounds were added to the media immediately after the transfection and media was changed on the third day. Replication signals were detected with Southern Blot method. Briefly, genomic DNA was extracted 3 and 4 days after the transfection with sh_RNAs or with the use of ABT-888 and 5 days after for analyses of the effects of HPV inhibitors w/wo CPT. DNA was digested with BglI and DpnI for analyses of HPV18 replication and with BstXI, ScaI and DpnI for analyses of HPV18 and oriP replication simultaneously. 3 ug of DNA was resolved in agarose gel, transferred to a nylon membrane (Membrane Solutions LLC) and hybridized with specific radioactively labeled probes. Signals were detected and quantified with Typhoon Trio+ phosphoimager (GE Healthcare) and exposed on an X-ray film (AGFA).
for compounds inhibiting initial amplification of HPV18 genome in U2OS cells. HT-screening was conducted with all the compounds in this library in 5 uM and 1 uM concentrations and it gave us 80 hits (approximately 5% of analyzed compounds). After validation of the hits on HPV18 wt genome, we found five compounds inhibiting initial amplification of HPV18 in U2OS cells (FIG. 1). To further characterize the compounds, we performed replication assay described in Example 1.

HPV18 [2] = assay: HPV18 replication in U2OS-EBNA1 cells, compounds alone or with CPT; assay type: cell-based; details: 5 days; for synergistic effect together with CPT on HPV18 replication: U2OS-EBNA1, with 2 nM CPT
Experimental: FIG. 5 Synergistic effect between Camptothecin (CPT) and the identified five compounds. U2OS-EBNA1 cells were transfected with HPV18 wt and oriP plasmids and grown in the presence of indicated concentrations of the compounds alone or together with 2 nM CPT for 5 days. Genomic DNA was extracted, linearized and digested with DpnI. Both HPV18 and oriP replication signals were detected with Southern Blot and quantified by phosphoimager. […] Error-bars represent standard deviations from at least three independent experiments.
as §1
Synergistic effect of Campthotecin (CPT) and HPV18 replication inhibitors. CPT is a Topoisomerase I inhibitor that stabilizes entrapped Top1cc complexes to DNA. Since Tdp1 is responsible for cleaving entrapped Top1cc complexes from DNA, synergistic effect between CPT and Tdp1 inhibitors occurs. In the experiments shown in FIG. 5 we used U2OS cells constitutively expressing Epstein Barr virus (EBV) EBNA1 protein—U2OS-EBNA1. These cells allow to monitor HPV and EBNA1 supported oriP plasmid replication simultaneously. […] U2OS-EBNA1 cells were cotransfected with HPV18 genome and oriP plasmid and the cells were grown in the presence of various concentrations of the identified HPV inhibitors alone or together with 2 nM of CPT for 5 days, DMSO was used as vehicle control.

HPV18 [3] = assay: Stable maintenance of HPV18 in U2OS #1.13 cells, subconfluent; assay type: cell-based; details: U2OS #1.13, subconfluent, 7 days; for HPV18 replication signal lost: compared to DMSO control
Experimental: (§2) FIG. 3 Effect of compounds on stable maintenance and vegetative amplification of HPV18. A: U2OS #1.13 cells were grown in subconfluent conditions in the presence of the identified five compounds for 7 days. Genomic DNA was extracted, linearized and HPV replication signal was detected by Southern Blot and B: quantified by phosphoimager. C: U2OS #1.13 were seeded and grown for 5 days without splitting. On the 5th day indicated concentrations of compounds were added to the media and the cells were grown for additional 7 days without splitting. On the 12th day genomic DNA was extracted, linearized and HPV replication signal was detected by Southern Blot and D: quantified by phosphoimager. Error-bars represent standard deviations from at least two independent experiments.
Our U2OScell-based system is suitable for studying all three replication stages of various HPV subtypes. Stable maintenance phase could be monitored by maintaining HPV-positive cells in subconfluent conditions. We used HPV18 positive monoclonal U2OS cell-line #1.13 with viral copy number ˜2000. We grew the #1.13 cells in the presence of various concentration of compounds in subconfluent conditions (cells were split every three days) for 7 days. HPV18 replication signal was detected by Southern blot analyses and quantified with phosphoimager. About 50% of the signal was lost in case of compound 82269 compared to the DMSO control (FIG. 3, panel A, compare lanes 4-6 with lane 15 and panel B).

HPV18 [4] = assay: Vegetative amplification of HPV18 in U2OS #1.13 cells, confluent; assay type: cell-based; details: U2OS #1.13, confluent, compounds added on 5th day for additional 7 days
Experimental: as §2
If #1.13 is grown in confluent conditions for at least 5 days, vegetative amplification of HPV genome is turned on. We seeded equal amounts of cells onto plates and grew them for 5 days without splitting. On the 5th day various concentrations of compound were added and the cells were grown for additional 7 days (media was changed every two days throughout the experiment). HPV replication signal was detected by Southern Blot analyses and quantified with phosphoimager.

Tdp = Tdp (Homo sapiens, UniProt Q9NUW8); details: known from the literature; cited from earlier work
Sequence of Tdp (Q9NUW8 whole entry): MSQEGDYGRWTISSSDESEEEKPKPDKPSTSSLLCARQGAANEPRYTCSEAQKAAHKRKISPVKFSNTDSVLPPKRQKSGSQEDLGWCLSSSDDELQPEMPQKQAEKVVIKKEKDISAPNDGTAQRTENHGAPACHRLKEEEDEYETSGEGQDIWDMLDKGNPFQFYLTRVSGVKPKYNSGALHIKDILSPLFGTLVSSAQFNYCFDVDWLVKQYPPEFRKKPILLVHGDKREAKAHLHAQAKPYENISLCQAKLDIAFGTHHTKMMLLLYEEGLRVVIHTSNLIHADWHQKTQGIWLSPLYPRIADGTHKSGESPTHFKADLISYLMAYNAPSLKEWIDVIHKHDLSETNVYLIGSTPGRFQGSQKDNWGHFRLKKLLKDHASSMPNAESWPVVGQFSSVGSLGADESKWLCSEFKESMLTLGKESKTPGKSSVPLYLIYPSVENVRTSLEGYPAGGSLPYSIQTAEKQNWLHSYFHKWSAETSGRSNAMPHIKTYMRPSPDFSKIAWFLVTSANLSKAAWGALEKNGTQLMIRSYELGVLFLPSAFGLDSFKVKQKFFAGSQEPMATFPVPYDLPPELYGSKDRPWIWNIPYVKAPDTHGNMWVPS

PARP1 = assay: Western Blot of PARP1 after shRNA in U2OS cells; assay type: cell-based
Description: (§3) FIG. 4 Involvement of Tdp1 and PARP1 in HPV18 initial amplification. A: U2OS cells were transfected with HPV18 wt minicircle and sh_Tdp1 plasmid. Genomic DNA was extracted 3 and 4 days after the transfection, linearized and digested with DpnI. HPV replication signal was detected with Southern Blot analyses and B: quantified with phosphoimager. C: Western Blot analyses showing downregulation of Tdp1 protein by shRNA. D: U2OS cells were transfected with HPV18 wt minicircle and sh_PARP1 plasmid. HPV replication signal was detected with Southern Blot analyses and E: quantified with phosphoimager. F: Western Blot analyses showing downregulation of PARP1 protein by shRNA. G: U2OS cells were transfected with HPV18 wt minicircle and grown for 3 and 4 days in the presence of different concentrations of PARP1 inhibitor ABT-888. HPV replication signal was detected with Southern Blot analyses and H: quantified with phosphoimager. Error-bars represent standard deviations from at least three independent experiments.
(§4) Western Blot. The cells were lysed with Laemmli buffer (4% SDS, 20% glycerol, 120 mM Tris-Cl (pH 6.8), and 200 mM DTT) and boiled for 10 minutes at 100° C. […] Tdp1 and PARP1 were detected with their specific antibodies from Santa Cruz Biotechnology: sc-365674 and sc-56197 respectively. Tubulin (used as loading control) was detected using Sigma Aldrich antibody T9026. […]

Tdp1 = assay: Western Blot of Tdp1 after shRNA in U2OS cells; assay type: cell-based
Description: as §3, §4

Row | Compound | IC50 (HPV18 [1]) [µM] | inhibition of HPV18 initial amplification (HPV18 [1]) | effect on stable maintenance of HPV18 (HPV18 [3]) | HPV18 replication signal lost (HPV18 [3]) | effect on vegetative amplification of HPV18 (HPV18 [4]) | synergistic effect together with CPT on HPV18 replication (HPV18 [2]) | further results
1 | C[C@]1(c2nc3c(C(N)=O)cccc3[nH]2)CCCN1 [ABT-888, veliparib, reference compound] | – | – | – | – | – | – | HPV18 replication in presence of PARP1 inhibitor (HPV18 [1]; 3 and 4 days, various concentrations, vs DMSO): HPV18 replication is decreased
2 | CC[C@@]1(O)C(=O)OCc2c1cc1n(c2=O)Cc2cc3ccccc3nc2-1 [CPT, Camptothecin, reference compound] | – | – | – | – | – | – | HPV18 initial amplification, CPT alone (HPV18 [2]; U2OS-EBNA1, 2 nM): did not inhibit
3 | CSc1ncc2[nH]c(C(O)c3ccccc3)nc2n1 (stereo not drawn) [NSC82269] | 2.5 to 60 | concentration-dependent inhibition | clearly inhibit | About 50% | clear concentration-dependent inhibition; also recorded: clearly inhibit | no synergistic effect; also recorded: does not | –
4 | Cc1cc(O)cc2c1[C@H]1CC[C@]3(C)C(=O)CC[C@H]3[C@H]1C=C2 [NSC 9782] | 2.5 to 60 | concentration-dependent inhibition | no significant reduction in signal; also recorded: does not inhibit any of the later replication stages | – | did not have any effect; also recorded: does not inhibit any of the later replication stages | clear concentration dependent synergistic effect; also recorded: clear synergistic inhibition | –
5 | C[C@]12CC[C@H]3[C@H](CCC4=CC(=O)CC[C@@]43C)[C@@H]1CC[C@@H]2C(=O)COS(=O)(=O)c1ccc(Br)cc1 [NSC 88915] | 2.5 to 60 | concentration-dependent inhibition | only inhibits stable maintenance phase | about 70% | did not have any effect | clear concentration dependent synergistic effect; also recorded: clear synergistic inhibition | Tdp inhibition (Tdp): known to inhibit Tdp
6 | CC(=O)OC1CCC2(C)C(CCC3C2CC(=O)C2(C)C3CC(N3CC3)C2C(C)=O)C1 (stereo not drawn) [NSC 109128] | 2.5 to 60 | concentration-dependent inhibition | clearly inhibit | about 70% | almost completely abolished amplification; also recorded: clearly inhibit | clear concentration dependent synergistic effect; also recorded: clear synergistic inhibition | –
7 | shRNA_PARP1: PARP1 shRNA plasmid, SEQ ID NO: 2, expression under RNA polymerase III promoter U6 (DNA GGACTCGCTCCGGATGGCCTTCAAGAGAGGCCATCCGGAGCGAGTCC) [reference compound] | – | – | – | – | – | – | HPV18 replication after shRNA downregulation (HPV18 [1]): inhibits HPV18 replication significantly; PARP1 expression (PARP1): decreased
8 | shRNA_Tdp1: Tdp1 shRNA plasmid, SEQ ID NO: 1, expression under RNA polymerase III promoter U6 (DNA GCACGATCTCTCTGAAACAAACTCGAGTTTGTTTCAGAGAGATCGT) [reference compound] | – | – | – | – | – | – | HPV18 replication after shRNA downregulation (HPV18 [1]): clear decrease in HPV18 replication; Tdp1 expression (Tdp1): decreased significantly
